Measured values published in patent publication US20230406803A1, “TROPOLONE DERIVATIVES AND TAUTOMERS THEREOF FOR IRON REGULATION IN ANIMALS” (Kinesid Therapeutics, Inc, priority 2020, published 2023).

Tested on: DMT1-deficient Caco-2 cells
Test: shDMT1-Caco2 55Fe transport assay
Assay type: cell-based
Conditions: 3 μM, 4 h; fold change over DMSO normalized to hinokitiol at 3 μM (FC hino=1)
Excerpt: Assay 2: shDMT1-Caco2 ^55Fe Transport Assay to Assess Ligand Ability in Transporting Fe (III)
Cells: DMT1-deficient Caco-2 cells (alias: “shDMT1,” or “4A” cells) were from Grillo et al. Science, 2017, and were cryopreserved in liquid nitrogen prior to use.
Reagents and supplies: ^55FeCl3 was obtained from PerkinElmer (Boston, MA). Iron(III) chloride (FeCl3) hexahydrate was obtained from Sigma. Dulbecco's Modified Eagle Medium (DMEM), fetal bovine serum (FBS), L-glutamine, MEM nonessential amino acids, penicillin-streptomycin, G418, formic acid, methanol, high-purity water, ammonium formate, dimethyl sulfoxide (DMSO) were purchased from Fisher Scientific. Propranolol, atenolol and carbutamide were obtained from Sigma-Aldrich Chemical Company (St Louis, MO). Scintillation cocktail was obtained from Research Product International Co. (Mount Prospect, IL). Stericup filter system (PES membrane, 0.22 um pore size) was purchased from Fisher Scientific. Corning item #3378 24-well transwell insert plates.
Test articles: known compounds hinokitiol and deferiprone were purchased from Sigma. They are tested side by side with the small molecule ligands disclosed in this application. DMSO stocks (10 mM, which is 1,000× of the 10 μM dose level) of hinokitiol or test articles were prepared. A stock solution of 25 mM deferiprone in DMSO was prepared. The DMSO stock solutions were stored at −20° C. or below when not in use.
The growth medium was prepared according to the following table
Apical media (serum free DMEM, 10 mM MES, pH 6.5) was prepared. Apical master mix media was prepared fresh with the addition of 200 nM ^55Fe before each experiment. For the negative control propranolol and atenolol wells, 200 nM of non-radioactive iron was used.
The basolateral media was serum-free DMEM, 10 mM HEPES, 2% bovine serum albumin (BSA), pH 7.4.
For each experiment, cells were seeded into the 24-well transwell plates (0.5 mL of 50,000 cells/mL) with growth media. The basolateral companion plate was loaded with 1 mL of growth media. After 12-24 hr, both the apical and basolateral chamber were replaced with growth media. The apical media was changed 3× per week for 21-28 days, including a media change exactly 48 hr before the assay date.
On the assay day, the TEER values were measured and the average TEER value was obtained. Individual wells with TEER value >35% lower than the average of all wells were excluded. For the qualified wells, the apical layer (twice) and basolaterial (once) chambers were washed with PBS. The basolateral companion plate was then filled with 1 mL of basolateral media. Via addition down the side-wall of the apical well, 300 μL per well of the apical assay master mix, with the indicated dose level of test article, was added. Each dose was tested in triplicate. The plates were incubated (5% CO2 and 90% humidity at 37° C.) for the indicated timepoints. At each indicated timepoint, the basolateral supernatant was gently mixed via pipetting, and 200 μL of the basolateral supernatant was transferred to scintillation vials. To each scintillation counting vial, 5 mL of scintillation cocktail fluid was added. For each scintillation vial, the radioactivity (CPM) was determined with liquid scintillation counter LS6500. The counting time per vial was 5 min.
All raw CPM values are divided by the average value of blank DMSO solution to give a fold of change above the DMSO value. The mean and standard deviation of each compound at each concentration level and at each time point measured was calculated to give the fold change (fc) value. For rank order compounds, the fc value of a ligand at 4 h time point is further divided by the fold change (fc) value of hinokitiol (a positive control compound) at an equimolar concentration to arrive at the FC (normalized fold of change) value. Data reported in Tables 1 and 2 is 4 hr time point FC=fc-ligand @ 3 uM/fc-hino @ 3 μM, and FC hino=1.

Structure (SMILES): CC(C)c1cccc(=O)c(O)c1 [hinokitiol, reference compound]
- Caco2 shDMT1 transport FC @ 3 μM, 4 h: 1
